In patent EP0129628A1, “Medicine, especially useful in psychiatry, which uses as the active constituent a lithium N-alkylcarbamoyl phosphate” (Richard, Marcel, priority 1983, dated 1985):

Assays:
[1] = acute toxicity (DL50), oral route; settings: mouse, in vivo, souris, par voie orale
Experimental: L'invention concerne enfin les médicaments qui contiennent au moins un produit de formule (1). Il a été trouvé en effet que les produits de formule (1) avaient une toxicité faible (la DL50 pour la souris et pour le produit de formule 1 dans lequel R est CH3 étant environ 3 200 mg/kg par voie orale) et une activité pharmacologique qui peut s'exprimer comme suit : • - diminution et/ou blocage des systèmes dopaminer- giques, • - augmentation, au moins transitoire, de la systhè- se de la sérotonine, • - pouvoir analgésique, les conséquences de ces actions se retrouvant dans les constatations suivantes : • - diminution de l'agressivité, • - diminution de la motilité et de la curiosité, • - protection contre les convulsions.

[2] = system: agressivité induite par des chocs électriques; assay: aggressiveness induced by electric shocks; format: in vivo, souris et/ou des chiens
[3] = system: convulsions produites par un électrochoc; assay: convulsions produced by electroshock; format: in vivo, souris et/ou des chiens; settings: dose de 5 MEq par kilo
test plaque chaude = assay: comparative analgesic activity (hot plate test); format: in vivo, souris et/ou des chiens; settings: dose de 13 MEq par kilo
[4] = system: systèmes dopaminer- gines; assay: test evaluating blockade of the dopaminergic systems; format: in vivo, souris et/ou des chiens
sécrétion de sérotonine = assay: test on serotonin secretion; format: in vivo, souris et/ou des chiens
motilité = assay: motility test; format: in vivo, souris et/ou des chiens; settings: dose de 13,5 MEq par kilo (carbonate de lithium: dose correspondante)

SMILES | LD50 [1] [mg/kg] | dose active [2] [MEq par kilo] | protection des sujets [3] [%] | protection (test plaque chaude) [%] | dose active à 100 % [4] | dose active après 24 heures (sécrétion de sérotonine) | la motilité baisse (motilité) [%] | dose active à 50 % [4]
CNC(=O)OP(=O)(O)O [N-méthyl-carbamoylphosphate de lithium] | ~3200 | 10 | 40 | 42 | 6,75 MEq par kilo | 6,75 MEq par kilo | 36 | 
O=C(O)O [carbonate de lithium, reference compound] |  |  |  | 27 |  | 10 MEq par kilo | 12 | 10,115 MEq par kilo
